Data set [1] can be described thus: Kinetic solubility of the compound in simulated intestinal fluid at pH 7.5 by LC-MS analysis. Format: physicochemical. To be noted: read-out: Kinetic_solubility.
Data set [2] relates to Chikungunya virus. The data set is described as follows: Antiviral activity against Chikungunya virus 181/25 infected in human NHDF cells assessed as log reduction of virus titer at 10 uM treated with cells at 1 hr prior to infection and measured at 24 hrs post-infection by plaque assay. The data set is classed as functional. Particulars: time 25 hrs.
Data set [3] in a line: Cytotoxicity against human NHDF cells deficient of IRF3 assessed as reduction in cell viability incubated for 72 hrs by CellTiter Glo luminescence assay. The data set is classed as toxicity, cell-based. On the technique in general: In ATP-based viability assays light output follows the ATP content of the culture.
The nature of data set [4]: Half life of the compound in mouse liver microsomes in presence of NADPH by LC-MS/MS analysis. The data set is classed as ADME, Microsome.
Data set [5] in a line: Octanol/PBS buffer distribution coefficient, logD of the compound at pH 7.5 by LC-MS analysis. The data set is classed as physicochemical.
Data set [6] can be described thus: Half life of the compound in human liver microsomes in presence of NADPH by LC-MS/MS analysis. The data set is classed as ADME, Microsome.
The subject of data set [7] is Chikungunya virus. Briefly: Antiviral activity against Chikungunya virus 181/25 infected in human NHDF cells assessed as reduction of virus titer treated with cells at 1 hr prior to infection and measured at 24 hrs post-infection by plaque assay. Format: functional, organism-based. To be noted: 181/25, NHDF, time 25 hrs.

In brackets after ≈: the same amount, converted by molar mass.

`CSc1ncccc1C(=O)Nc1nc(-c2cccc(N3CCNCC3)c2)cs1`: the solubility kinetic in data set [1] is 59 µM (≈ 24.3 µg/mL). The “log(activity)” value in the data set on Chikungunya virus [2] is listed as 8.7. For the same compound, the 50% cytotoxic concentration (CC50) at 72 h in data set [3] is greater than 30 µM. In addition, the results for the half-life in data set [4] and in data set [6] were 211 min and greater than 300 min, respectively. Further, the logD in data set [5] was determined as 1.8.
For `CC(C)(C#N)c1ccc(C(=O)Nc2nc(-c3ccc4ccccc4c3)cs2)cc1`, in data set [1], the solubility kinetic was less than 1 µM. Also, in the data set with Chikungunya virus [2], the “log(activity)” value was found to be 2.6. For the same compound, the 50% cytotoxic concentration (CC50) at 72 h in data set [3] was greater than 30 µM. Further, the results for the half-life in data set [4] and in data set [6] were 129 min and 98 min, respectively. For the same compound, the logD in data set [5] is greater than 3.85. Besides, the 90% effect concentration (EC90) in the data set on Chikungunya virus [7] was 1.5 µM.
For the compound `CSc1ncccc1C(=O)Nc1nc(-c2cccc(-c3ccccc3)c2)cs1`, the solubility kinetic in data set [1] is less than 1 µM. Besides, the “log(activity)” value in the data set with Chikungunya virus [2] amounted to 7.8. In addition, the 50% cytotoxic concentration (CC50) at 72 h in data set [3] was greater than 30 µM. For the same compound, the results for the half-life in data set [4] and in data set [6] were 51 min and 34 min, respectively. The compound also displayed a pH-dependent lipophilicity (logD) in data set [5] greater than 4.15.
Consider `CSc1ncccc1C(=O)Nc1nc(-c2cccc(Nc3ccc(C#N)c(O)c3)c2)cs1`, for which the solubility kinetic in data set [1] is 1 µM (≈ 0.46 µg/mL). Besides, the “log(activity)” value in the data set on Chikungunya virus [2] is 1.2. Also, the CC50 at 72 h in data set [3] stood at 15.9 µM. In addition, the half-life stood at 35 min in data set [4] and 43 min in data set [6]. Besides, the logD in data set [5] is greater than 3.46. Moreover, in the data set on Chikungunya virus [7], the concentration for an effect of 90% (EC90) was 10.1 µM.
Turning to `CSc1ncccc1C(=O)Nc1nc(-c2cccc(-c3ccc(C#N)c(O)c3)c2)cs1`, in data set [1], the solubility kinetic was 3 µM (≈ 1.33 µg/mL). Besides, the “log(activity)” value in the data set with Chikungunya virus [2] was determined as 8.5. Moreover, the 50% cytotoxic concentration (CC50) at 72 h in data set [3] was greater than 30 µM. For the same compound, the half-life in data set [4] was 49 min; in data set [6] it was 43 min. In data set [5], this compound displayed a logD greater than 3.91.
For `CSc1ncccc1C(=O)Nc1nc(-c2cccc(-c3ccccn3)c2)cs1`, the solubility kinetic in data set [1] is less than 1 µM. In addition, the “log(activity)” value in the data set on Chikungunya virus [2] amounted to 4. Further, the CC50 at 72 h in data set [3] is greater than 30 µM. Besides, the half-life in data set [4] turned out to be 8 min; in data set [6] it was 15 min. Further, the logD in data set [5] is greater than 3.83. Besides, in the data set with Chikungunya virus [7], the EC90 turned out to be 0.7 µM.
As for `CSc1ncccc1C(=O)Nc1nc(-c2cccc(-c3ccc(C#N)cn3)c2)cs1`, in data set [1], the solubility kinetic was less than 1 µM. In the data set with Chikungunya virus [2], the “log(activity)” value is listed as 6. Besides, the 50% cytotoxic concentration (CC50) at 72 h in data set [3] is greater than 30 µM. Moreover, the half-life was 34 min in data set [4] and 25 min in data set [6]. The compound further showed a logD in data set [5] greater than 3.97.
Regarding `CSc1ncccc1C(=O)Nc1nc(-c2cccc(Nc3ccc(CN)cc3)c2)cs1`, in data set [1], the solubility kinetic is 33 µM (≈ 14.8 µg/mL). In addition, the “log(activity)” value in the data set with Chikungunya virus [2] amounted to 1.2. The 50% cytotoxic concentration (CC50) at 72 h in data set [3] stood at 15.4 µM. Further, the figures for the half-life in data set [4] and in data set [6] were 234 min and 37 min, respectively. Also, the log distribution coefficient (logD) in data set [5] came out at 2.2. The EC90 in the data set on Chikungunya virus [7] was 9.8 µM.
On to `CSc1ncccc1C(=O)Nc1nc(-c2cc(C(=O)O)cc(-c3ccc(C#N)cc3)c2)cs1`, for which the solubility kinetic in data set [1] was less than 1 µM. The “log(activity)” value in the data set with Chikungunya virus [2] turned out to be 0. For the same compound, the CC50 at 72 h in data set [3] is greater than 40 µM. For the same compound, the half-life in data set [4] and in data set [6] was greater than 300 min in each case. The compound further came in with a logD in data set [5] of 1.9.
Take `CC(C)(C)c1ncc(C(=O)Nc2nc(-c3ccc4ccccc4c3)cs2)s1`: the solubility kinetic in data set [1] is less than 1 µM. Further, the “log(activity)” value in the data set with Chikungunya virus [2] worked out at 7.5. The CC50 at 72 h in data set [3] is greater than 30 µM. Further, the results for the half-life in data set [4] and in data set [6] were 9 min and 51 min, respectively. The compound also showed a logD in data set [5] greater than 3.03. In the data set on Chikungunya virus [7], the EC90 was determined as 3.5 µM.
On to `CSc1ncccc1C(=O)Nc1nc(-c2cccc(-c3ccc(C#N)cc3)c2)cs1`, for which the solubility kinetic in data set [1] was less than 1 µM. For the same compound, the “log(activity)” value with Chikungunya virus [2] turned out to be 4.7. In addition, the CC50 at 72 h in data set [3] was greater than 30 µM. In addition, the results for the half-life in data set [4] and in data set [6] were 57 min and 39 min, respectively. In addition, the logD in data set [5] is greater than 4.66.
Consider `CSc1ncccc1C(=O)Nc1nc(-c2cccc(Nc3ccc(C#N)c(C(=O)O)c3)c2)cs1`, for which, in data set [1], the solubility kinetic is 84 µM (≈ 41 µg/mL). In addition, in the data set on Chikungunya virus [2], the “log(activity)” value turned out to be 0.15. Moreover, the CC50 at 72 h in data set [3] was greater than 40 µM. Besides, the half-life in data set [4] stood at 72 min; in data set [6], 145 min. The compound further gave a logD in data set [5] of 1.4. The EC90 in the data set on Chikungunya virus [7] is greater than 40 µM.
Take `Cc1ncccc1C(=O)Nc1nc(-c2ccc3ccccc3c2)cs1`: the solubility kinetic in data set [1] is 3 µM (≈ 1.04 µg/mL). Also, the “log(activity)” value with Chikungunya virus [2] turned out to be 1.9. The half-maximal cytotoxic concentration (CC50) at 72 h in data set [3] was greater than 30 µM. Further, the half-life in data set [4] and in data set [6] was 26 min in each case. Besides, the logD in data set [5] is greater than 4.27. The 90% effect concentration (EC90) in the data set on Chikungunya virus [7] was 3.2 µM.
As for `O=C(Nc1nc(-c2ccc3ccccc3c2)cs1)c1cc(F)c(O)c(F)c1`, in data set [1], the solubility kinetic is less than 1 µM. Besides, in the data set on Chikungunya virus [2], the “log(activity)” value came to 7.6. Also, the CC50 at 72 h in data set [3] amounted to 20 µM. Also, the figures for the half-life in data set [4] and in data set [6] were 36 min and 137 min, respectively. In data set [5], this compound had a pH-dependent lipophilicity (logD) greater than 3.45. In the data set with Chikungunya virus [7], the EC90 came to 2.9 µM.
Consider `CSc1ncccc1C(=O)Nc1nc(-c2ccc3ncccc3c2)cs1`, for which the solubility kinetic in data set [1] was 56 µM (≈ 21.2 µg/mL). For the same compound, the “log(activity)” value in the data set with Chikungunya virus [2] was 1.2. Moreover, the CC50 at 72 h in data set [3] worked out at 18 µM. In addition, the half-life in data set [4] amounted to 13 min; in data set [6] it was 17 min. The compound further returned a pH-dependent lipophilicity (logD) in data set [5] of 3.8. The EC90 with Chikungunya virus [7] worked out at 7.9 µM.
Consider `CSc1ncccc1C(=O)Nc1nc(-c2cccc(Nc3ccc(C#N)cn3)c2)cs1`, for which the solubility kinetic in data set [1] was less than 1 µM. In the data set on Chikungunya virus [2], the “log(activity)” value came to 2.2. Further, the CC50 at 72 h in data set [3] is 40 µM. For the same compound, the half-life came to 17 min in data set [4] and 19 min in data set [6]. In addition, the EC90 in the data set with Chikungunya virus [7] came to 4.8 µM.
For the compound `CSc1ncccc1C(=O)Nc1nc(-c2cc(F)cc(-c3ccc(C#N)cc3)c2)cs1`, the solubility kinetic in data set [1] is less than 1 µM. The “log(activity)” value in the data set with Chikungunya virus [2] is 6.1. For the same compound, in data set [3], the CC50 at 72 h is greater than 30 µM. Moreover, the half-life in data set [4] came out at 123 min; in data set [6], 53 min. Further, in data set [5], the pH-dependent lipophilicity (logD) is greater than 4.09.
`CC(C)(C)c1ccc(C(=O)Nc2nc(-c3ccc4ccccc4c3)cs2)cc1`: the solubility kinetic in data set [1] is less than 1 µM. In addition, the “log(activity)” value in the data set with Chikungunya virus [2] is reported as 4.3. Moreover, in data set [3], the CC50 at 72 h was greater than 30 µM. For the same compound, the half-life amounted to 8 min in data set [4] and 49 min in data set [6]. In addition, the logD in data set [5] is greater than 3.32. For the same compound, in the data set with Chikungunya virus [7], the EC90 turned out to be 0.1 µM.
For `CSc1ncccc1C(=O)Nc1nc(-c2cc(-c3ccc(C#N)cc3)ccc2F)cs1`, the solubility kinetic in data set [1] is less than 1 µM. In addition, in the data set on Chikungunya virus [2], the “log(activity)” value was 5.8. For the same compound, in data set [3], the cytotoxic concentration (CC50) at 72 h was greater than 30 µM. The results for the half-life in data set [4] and in data set [6] were 69 min and 85 min, respectively. In data set [5], the logD is 2.
Consider `CC(C)(C(=O)O)c1ccc(C(=O)Nc2nc(-c3ccc4ccccc4c3)cs2)cc1`, for which the solubility kinetic in data set [1] was 64 µM (≈ 26.7 µg/mL). Further, the “log(activity)” value with Chikungunya virus [2] amounted to 0. Moreover, the cytotoxic concentration (CC50) at 72 h in data set [3] is greater than 30 µM. The half-life in data set [4] worked out at 213 min; in data set [6] it was 292 min. For the same compound, the pH-dependent lipophilicity (logD) in data set [5] was 2.1.

As a reminder, the CC50 is the concentration that lowers cell viability or growth by half. For orientation: half-life means the time needed for the level to fall by half in the phase considered. What is called logD is the decadic logarithm of the distribution of all forms, ionised or not, between an organic phase and buffer at a given pH. By EC90 is commonly meant the point of the concentration-response curve where the effect stands at 90%.

The values above are taken from ChEMBL document CHEMBL6074675, “4-Substituted-2-Thiazole Amides as Viral Replication Inhibitors of Alphaviruses” (J Med Chem, 2024).
